Results from paper PMC7614683, “A small molecule PI3Kα activator for cardioprotection and neuroregeneration” (Nature, 2023).

Target: T1, full length p110α/p85α (Homo sapiens, UniProt P42336)
T1 construct: Full-length human p110α was expressed either in a complex with full-length human p85α (for HTS, biochemistry and HDX-MS); 6xHis tag followed by TEV protease site (N); host or cells: Spodoptera frugiperda Sf9, baculovirus
Test: HDX-MS
Format: binding
Experimental: Sample preparation: HDX-MS experiments were carried out as described previously. […] In total, three biological replicates, i.e. three separate protein preparations, each with exchange experiments carried out in triplicate were conducted. Data presented in the manuscript is a single biological replicate. Data acquisition and analysis were as follows: Each sample was thawed and injected onto an M-Class Acquity UPLC with HDX Technology (Waters) kept at 0.1°C. Proteins were digested in-line using an Enzymate Pepsin Column (Waters, #186007233) at 15°C for 2 min at 200 μl/min. Peptic peptides were then eluted onto an Acquity UPLC BEH C18 Column (Waters, #186002346) equilibrated in Pepsin-A buffer (0.1% formic acid) and separated using a 5-35% gradient of Pepsin-B buffer (0.1% formic acid, 99% acetonitrile) over 7 min at a flowrate of 40 μl/min. Data were collected on a Waters Cyclic IMS, with an electrospray ionisation source, from 50-2000 m/z. Data were collected in the HDMS^E mode. A single pass of the cyclic IMS was conducted. A “blank” sample of protein dilution buffer with quench was run between samples, and carry-over of peptides was routinely monitored. Five replicates were used to identify non-deuterated peptides. Criteria used to include peptides in the HDX-MS dataset were: minimum intensity 5000, minimum sequence length 5, maximum sequence length 25, a minimum of 3 fragment ions, a minimum of 0.1 products per amino acid, a minimum score of 6.62, a maximum MH+ Error of 10 ppm, identification in at least two datasets with a retention time RSD of less than 10%. Data was analysed using Protein Lynx Global Server (Waters) and DynamX (Waters). All peptides were manually inspected for EX1 kinetics and sufficient quality of the peptide envelope. Data quality, experiment design, and reporting of data meets the criteria as determined by the HDX-MS community. Uptake files were created using Baryonyx. Data are available via ProteomeXchange with identifier PXD037721.

T1 sequence (P42336 whole entry): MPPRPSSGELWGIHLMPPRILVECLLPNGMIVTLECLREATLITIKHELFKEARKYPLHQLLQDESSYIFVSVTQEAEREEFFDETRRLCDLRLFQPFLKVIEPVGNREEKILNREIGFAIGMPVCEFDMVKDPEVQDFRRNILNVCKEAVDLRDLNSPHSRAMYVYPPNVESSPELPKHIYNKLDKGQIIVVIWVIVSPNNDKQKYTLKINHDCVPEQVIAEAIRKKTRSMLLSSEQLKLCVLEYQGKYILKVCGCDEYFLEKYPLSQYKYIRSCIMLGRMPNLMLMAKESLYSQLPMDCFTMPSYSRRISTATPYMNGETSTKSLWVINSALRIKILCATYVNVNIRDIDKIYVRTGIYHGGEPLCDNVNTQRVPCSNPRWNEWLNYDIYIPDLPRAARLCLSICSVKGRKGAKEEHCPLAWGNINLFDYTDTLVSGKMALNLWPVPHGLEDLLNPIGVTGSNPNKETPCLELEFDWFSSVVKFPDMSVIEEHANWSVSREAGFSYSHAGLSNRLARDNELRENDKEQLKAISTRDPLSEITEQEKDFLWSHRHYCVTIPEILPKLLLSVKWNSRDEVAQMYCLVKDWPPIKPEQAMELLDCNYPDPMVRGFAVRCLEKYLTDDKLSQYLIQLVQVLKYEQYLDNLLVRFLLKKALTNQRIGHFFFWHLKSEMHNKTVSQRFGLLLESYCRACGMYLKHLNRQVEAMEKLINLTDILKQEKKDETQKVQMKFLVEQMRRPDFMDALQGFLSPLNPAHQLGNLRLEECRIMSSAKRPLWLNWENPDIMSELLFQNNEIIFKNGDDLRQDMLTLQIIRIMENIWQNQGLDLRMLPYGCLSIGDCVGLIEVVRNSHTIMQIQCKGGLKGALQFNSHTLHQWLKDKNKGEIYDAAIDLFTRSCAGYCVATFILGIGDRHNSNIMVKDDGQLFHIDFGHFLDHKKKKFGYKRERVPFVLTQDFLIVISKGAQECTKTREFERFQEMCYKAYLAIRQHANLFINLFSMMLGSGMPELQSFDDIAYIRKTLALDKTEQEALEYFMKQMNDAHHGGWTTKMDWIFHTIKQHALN
T1 sequence (P27986 whole entry partner): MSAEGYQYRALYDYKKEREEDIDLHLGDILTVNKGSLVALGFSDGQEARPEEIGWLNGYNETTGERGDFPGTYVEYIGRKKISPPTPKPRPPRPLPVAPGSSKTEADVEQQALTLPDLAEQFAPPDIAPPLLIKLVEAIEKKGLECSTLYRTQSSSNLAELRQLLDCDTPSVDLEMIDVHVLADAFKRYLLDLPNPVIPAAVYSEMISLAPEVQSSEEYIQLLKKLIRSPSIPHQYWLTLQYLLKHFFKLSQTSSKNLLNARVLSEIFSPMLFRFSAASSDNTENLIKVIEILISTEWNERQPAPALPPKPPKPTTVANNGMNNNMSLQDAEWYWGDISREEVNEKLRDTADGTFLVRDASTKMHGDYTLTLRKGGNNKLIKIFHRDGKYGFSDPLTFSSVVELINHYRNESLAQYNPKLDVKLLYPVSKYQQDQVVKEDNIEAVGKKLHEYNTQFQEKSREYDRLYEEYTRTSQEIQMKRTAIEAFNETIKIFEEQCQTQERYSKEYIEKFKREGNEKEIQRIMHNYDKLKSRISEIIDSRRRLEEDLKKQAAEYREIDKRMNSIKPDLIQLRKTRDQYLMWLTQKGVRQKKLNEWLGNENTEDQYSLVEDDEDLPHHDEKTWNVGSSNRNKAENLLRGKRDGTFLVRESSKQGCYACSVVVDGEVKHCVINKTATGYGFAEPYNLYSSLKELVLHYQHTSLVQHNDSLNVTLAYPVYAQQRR

For `CCN1CCN(c2ccc(Nc3cc(Nc4cccc5c4N(C(C)=O)CC5)ccn3)cc2)CC1` [Compound 1938], the “HDX difference, percentage” value (PK3CA_HUMAN peptide 487-498, time column 5 of 5) was -0.361%, the “HDX difference, percentage” value (PK3CA_HUMAN peptide 496-507, time column 1 of 5, deuterium exchange time 0.005) was -1.7% and the “HDX difference, percentage” value (PK3CA_HUMAN peptide 496-507, time column 2 of 5, deuterium exchange time 0.05) was 0.429%. For the same molecule, the “HDX difference, percentage” value (PK3CA_HUMAN peptide 496-507, time column 3 of 5, deuterium exchange time 0.5) was 0.5%, the “HDX difference, percentage” value (PK3CA_HUMAN peptide 496-507, time column 4 of 5, deuterium exchange time 5) was 0.6% and the “HDX difference, percentage” value (PK3CA_HUMAN peptide 496-507, time column 5 of 5) was 0.121%. For the same molecule, the “HDX difference, percentage” value (PK3CA_HUMAN peptide 508-520, time column 1 of 5, deuterium exchange time 0.005) was -0.644%, the “HDX difference, percentage” value (PK3CA_HUMAN peptide 508-520, time column 2 of 5, deuterium exchange time 0.05) was 1.9% and the “HDX difference, percentage” value (PK3CA_HUMAN peptide 508-520, time column 3 of 5, deuterium exchange time 0.5) was 1.4%. The “HDX difference, percentage” value (PK3CA_HUMAN peptide 508-520, time column 4 of 5, deuterium exchange time 5) was 1.5%, the “HDX difference, percentage” value (PK3CA_HUMAN peptide 508-520, time column 5 of 5) was 0.952% and the “HDX difference, percentage” value (PK3CA_HUMAN peptide 538-549, time column 1 of 5, deuterium exchange time 0.005) was -0.8%. For the same molecule, the “HDX difference, percentage” value (PK3CA_HUMAN peptide 538-549, time column 2 of 5, deuterium exchange time 0.05) was 1.0%, the “HDX difference, percentage” value (PK3CA_HUMAN peptide 538-549, time column 3 of 5, deuterium exchange time 0.5) was 0.441% and the “HDX difference, percentage” value (PK3CA_HUMAN peptide 538-549, time column 4 of 5, deuterium exchange time 5) was -1.1%. For the same molecule, the “HDX difference, percentage” value (PK3CA_HUMAN peptide 538-549, time column 5 of 5) was -0.257%, the “HDX difference, percentage” value (PK3CA_HUMAN peptide 538-554, time column 1 of 5, deuterium exchange time 0.005) was -1.3% and the “HDX difference, percentage” value (PK3CA_HUMAN peptide 538-554, time column 2 of 5, deuterium exchange time 0.05) was 0.7%. The “HDX difference, percentage” value (PK3CA_HUMAN peptide 538-554, time column 3 of 5, deuterium exchange time 0.5) was 0.47%, the “HDX difference, percentage” value (PK3CA_HUMAN peptide 538-554, time column 4 of 5, deuterium exchange time 5) was -1.1% and the “HDX difference, percentage” value (PK3CA_HUMAN peptide 538-554, time column 5 of 5) was -0.74%. The “HDX difference, percentage” value (PK3CA_HUMAN peptide 555-570, time column 1 of 5, deuterium exchange time 0.005) was -1.2%, the “HDX difference, percentage” value (PK3CA_HUMAN peptide 555-570, time column 2 of 5, deuterium exchange time 0.05) was 0.462% and the “HDX difference, percentage” value (PK3CA_HUMAN peptide 555-570, time column 3 of 5, deuterium exchange time 0.5) was 0.2%. The “HDX difference, percentage” value (PK3CA_HUMAN peptide 555-570, time column 4 of 5, deuterium exchange time 5) was -1.4%, the “HDX difference, percentage” value (PK3CA_HUMAN peptide 555-570, time column 5 of 5) was -2.6% and the “HDX difference, percentage” value (PK3CA_HUMAN peptide 571-583, time column 1 of 5, deuterium exchange time 0.005) was -0.6%. For the same molecule, the “HDX difference, percentage” value (PK3CA_HUMAN peptide 571-583, time column 2 of 5, deuterium exchange time 0.05) was 0.4%, the “HDX difference, percentage” value (PK3CA_HUMAN peptide 571-583, time column 3 of 5, deuterium exchange time 0.5) was 0.167% and the “HDX difference, percentage” value (PK3CA_HUMAN peptide 571-583, time column 4 of 5, deuterium exchange time 5) was -0.378%. For the same molecule, the “HDX difference, percentage” value (PK3CA_HUMAN peptide 571-583, time column 5 of 5) was -1.4%, the “HDX difference, percentage” value (PK3CA_HUMAN peptide 582-596, time column 1 of 5, deuterium exchange time 0.005) was -1.6% and the “HDX difference, percentage” value (PK3CA_HUMAN peptide 582-596, time column 2 of 5, deuterium exchange time 0.05) was 0.374%. The “HDX difference, percentage” value (PK3CA_HUMAN peptide 582-596, time column 3 of 5, deuterium exchange time 0.5) was 0.262%, the “HDX difference, percentage” value (PK3CA_HUMAN peptide 582-596, time column 4 of 5, deuterium exchange time 5) was 0.76% and the “HDX difference, percentage” value (PK3CA_HUMAN peptide 582-596, time column 5 of 5) was 0.0749%. For the same molecule, the “HDX difference, percentage” value (PK3CA_HUMAN peptide 597-606, time column 1 of 5, deuterium exchange time 0.005) was 0.175%, the “HDX difference, percentage” value (PK3CA_HUMAN peptide 597-606, time column 2 of 5, deuterium exchange time 0.05) was 1.6% and the “HDX difference, percentage” value (PK3CA_HUMAN peptide 597-606, time column 3 of 5, deuterium exchange time 0.5) was 0.5%. For the same molecule, the “HDX difference, percentage” value (PK3CA_HUMAN peptide 597-606, time column 4 of 5, deuterium exchange time 5) was 1.4%, the “HDX difference, percentage” value (PK3CA_HUMAN peptide 597-606, time column 5 of 5) was 1.3% and the “HDX difference, percentage” value (PK3CA_HUMAN peptide 610-637, time column 1 of 5, deuterium exchange time 0.005) was -0.237%. For the same molecule, the “HDX difference, percentage” value (PK3CA_HUMAN peptide 610-637, time column 2 of 5, deuterium exchange time 0.05) was 0.13%, the “HDX difference, percentage” value (PK3CA_HUMAN peptide 610-637, time column 3 of 5, deuterium exchange time 0.5) was 0.2% and the “HDX difference, percentage” value (PK3CA_HUMAN peptide 610-637, time column 4 of 5, deuterium exchange time 5) was 0.257%. For the same molecule, the “HDX difference, percentage” value (PK3CA_HUMAN peptide 610-637, time column 5 of 5) was 0.128%, the “HDX difference, percentage” value (PK3CA_HUMAN peptide 626-638, time column 1 of 5, deuterium exchange time 0.005) was -1.2% and the “HDX difference, percentage” value (PK3CA_HUMAN peptide 626-638, time column 2 of 5, deuterium exchange time 0.05) was 1.0%. The “HDX difference, percentage” value (PK3CA_HUMAN peptide 626-638, time column 3 of 5, deuterium exchange time 0.5) was 0.459%, the “HDX difference, percentage” value (PK3CA_HUMAN peptide 626-638, time column 4 of 5, deuterium exchange time 5) was -0.333% and the “HDX difference, percentage” value (PK3CA_HUMAN peptide 626-638, time column 5 of 5) was -0.147%. For the same molecule, the “HDX difference, percentage” value (PK3CA_HUMAN peptide 647-658, time column 1 of 5, deuterium exchange time 0.005) was -0.361%, the “HDX difference, percentage” value (PK3CA_HUMAN peptide 647-658, time column 2 of 5, deuterium exchange time 0.05) was 0.6% and the “HDX difference, percentage” value (PK3CA_HUMAN peptide 647-658, time column 3 of 5, deuterium exchange time 0.5) was 1.0%. The “HDX difference, percentage” value (PK3CA_HUMAN peptide 647-658, time column 4 of 5, deuterium exchange time 5) was 1.2%, the “HDX difference, percentage” value (PK3CA_HUMAN peptide 647-658, time column 5 of 5) was -0.0483% and the “HDX difference, percentage” value (PK3CA_HUMAN peptide 661-687, time column 1 of 5, deuterium exchange time 0.005) was -1.5%. For the same molecule, the “HDX difference, percentage” value (PK3CA_HUMAN peptide 661-687, time column 2 of 5, deuterium exchange time 0.05) was 0.4%, the “HDX difference, percentage” value (PK3CA_HUMAN peptide 661-687, time column 3 of 5, deuterium exchange time 0.5) was 0.466% and the “HDX difference, percentage” value (PK3CA_HUMAN peptide 661-687, time column 4 of 5, deuterium exchange time 5) was 0.23%. For the same molecule, the “HDX difference, percentage” value (PK3CA_HUMAN peptide 661-687, time column 5 of 5) was -0.271%, the “HDX difference, percentage” value (PK3CA_HUMAN peptide 688-693, time column 1 of 5, deuterium exchange time 0.005) was -3.1% and the “HDX difference, percentage” value (PK3CA_HUMAN peptide 688-693, time column 2 of 5, deuterium exchange time 0.05) was 0.6%. The “HDX difference, percentage” value (PK3CA_HUMAN peptide 688-693, time column 3 of 5, deuterium exchange time 0.5) was -0.142%, the “HDX difference, percentage” value (PK3CA_HUMAN peptide 688-693, time column 4 of 5, deuterium exchange time 5) was -0.352% and the “HDX difference, percentage” value (PK3CA_HUMAN peptide 688-693, time column 5 of 5) was -0.379%. The “HDX difference, percentage” value (PK3CA_HUMAN peptide 692-703, time column 1 of 5, deuterium exchange time 0.005) was -0.563%, the “HDX difference, percentage” value (PK3CA_HUMAN peptide 692-703, time column 2 of 5, deuterium exchange time 0.05) was 0.65% and the “HDX difference, percentage” value (PK3CA_HUMAN peptide 692-703, time column 3 of 5, deuterium exchange time 0.5) was 0.8%. The “HDX difference, percentage” value (PK3CA_HUMAN peptide 692-703, time column 4 of 5, deuterium exchange time 5) was 0.4%, the “HDX difference, percentage” value (PK3CA_HUMAN peptide 692-703, time column 5 of 5) was 0.166% and the “HDX difference, percentage” value (PK3CA_HUMAN peptide 704-709, time column 1 of 5, deuterium exchange time 0.005) was 0.4%. For the same molecule, the “HDX difference, percentage” value (PK3CA_HUMAN peptide 704-709, time column 2 of 5, deuterium exchange time 0.05) was 0.074%, the “HDX difference, percentage” value (PK3CA_HUMAN peptide 704-709, time column 3 of 5, deuterium exchange time 0.5) was -1.2% and the “HDX difference, percentage” value (PK3CA_HUMAN peptide 704-709, time column 4 of 5, deuterium exchange time 5) was -0.7%. The “HDX difference, percentage” value (PK3CA_HUMAN peptide 704-709, time column 5 of 5) was 0.531%.
